The test system of experiment [1] is Syrian golden hamster. Briefly: Increase in HDL cholesterol level in hamster at 50 mg/kg, po. The format is functional, Mesocricetus auratus.
For experiment [2], the system named is Syrian golden hamster. The experiment in a line: Increase in HDL cholesterol to total cholesterol level in hamster at 50 mg/kg, po. The format is functional, Mesocricetus auratus.
In experiment [3] the test system is Syrian golden hamster. The experiment in a line: Decrease in glycerol level in hamster at 50 mg/kg, po. The format is functional, Mesocricetus auratus. Details: scale not given: the % may be the effect or the level left.
In experiment [4] the test system is Syrian golden hamster. Briefly: Decrease in total cholesterol level in hamster at 50 mg/kg, po. The format is functional.
The subject of experiment [5] is Syrian golden hamster. Briefly: Increase in free fatty acid in hamster at 50 mg/kg, po. It is filed as functional, Mesocricetus auratus.
Experiment [6] relates to Syrian golden hamster. The experiment in a line: Decrease in plasma triglyceride level in hamster at 50 mg/kg, po. Details: scale not given: the % may be the effect or the level left. The format is functional, Mesocricetus auratus.
Experiment [7] concerns Syrian golden hamster. The experiment in a line: Decrease in free fatty acid in hamster at 50 mg/kg, po. Also on record: scale not given: the % may be the effect or the level left. The format is functional, Mesocricetus auratus.

The source of these data is ChEMBL document CHEMBL1138083, “Antidyslipidemic activity of furano-flavonoids isolated from Indigofera tinctoria” (2006).

Calls of active or inactive are those of the source. The calls are words filed in the database; no cut-off is given here.

Consider `CC(=O)OC1C(C)(C)OC(=O)C12COc1ccc3c(=O)cc(-c4ccccc4)oc3c12` (stereo not drawn), for which the Activity turned out to be 28% in the experiment on Syrian golden hamster [1]; 26% in the experiment with Syrian golden hamster [2]; 6% in the experiment on Syrian golden hamster [3]; 7% in the experiment with Syrian golden hamster [5]; 41% in the experiment on Syrian golden hamster [6]. Moreover, the result in the experiment on Syrian golden hamster [4] (Mesocricetus auratus) was inactive.
Regarding `CC(=O)O[C@H]1[C@@H]2c3c(ccc4c(=O)cc(-c5ccccc5)oc34)O[C@@H]2OC1(C)C`, the Activity was 8% in the experiment with Syrian golden hamster [1]; 36% with Syrian golden hamster [2]; 13% with Syrian golden hamster [3]; 19% in the experiment on Syrian golden hamster [4]; 25% with Syrian golden hamster [7]; 60% in the experiment with Syrian golden hamster [6].
For the molecule `CC(=O)O[C@@H]1[C@@H]2c3c(ccc4c(=O)cc(-c5ccccc5)oc34)O[C@@H]2OC1(C)C`, the Activity amounted to 8% with Syrian golden hamster [1]; 36% in the experiment on Syrian golden hamster [2]; 13% with Syrian golden hamster [3]; 19% with Syrian golden hamster [4]; 25% in the experiment on Syrian golden hamster [7]; 60% with Syrian golden hamster [6].
